# Measurements from patent US20240130994A1, “IONIC LIQUID FORMULATIONS FOR TREATING DIABETES” (i2O Therapeutics, Inc., priority 2020, published 2024).
# Assays:
# [1] = Physical form of choline-based ionic liquids at room temperature; type: physicochemical
# Protocol: Several ionic liquids comprising choline as a cation and various anions were synthesized. […] For anions not miscible with the aqueous choline bicarbonate solution, a co-solvent, such as ethanol, was added until a homogenous mixture formed. The mixture was stirred at room temperature until CO2 evolution ceased. Solvent was removed by rotary evaporation at 60° C. for 20 minutes, and each product was dried in a vacuum oven for 48 hours at 60° C.
# [2] = test system: non-diabetic male Wistar rats; experiment: Blood glucose levels after intrajejunal injection in fasted non-diabetic rats; type: in vivo, rat; conditions: 38 μL dose (acid content of 50 μL ionic liquid)
# Protocol: About 250 μL of blood was collected at regular intervals in order to determine the blood glucose level. The obtained values, plotted as mean percent change±standard error in blood glucose levels with respect to initial reading (n=3) versus time, are shown in FIG. 7.
# About 250 μL of blood was collected at regular intervals in order to determine the blood glucose level. The obtained values, plotted as mean percent change±standard error in blood glucose levels with respect to initial reading (n=3) versus time, are shown in FIG. 8.
# The obtained values, plotted as mean percent change±standard error in blood glucose levels with respect to initial reading (n=4) versus time, are shown in FIG. 9.
# [3] = cation:anion 1:1, room temperature
# [4] = cation:anion 1:2, room temperature
# [5] = cation:anion 2:1, room temperature
Molecule,"Physical Form (Ratios Listed as Cation:Anion) [1, 3]","Physical Form (Ratios Listed as Cation:Anion) [1, 4]",other results
CC/C=C\C/C=C\C/C=C\C/C=C\C/C=C\CCCC(=O)O [Eicosapentanoic Acid (EPA)],Solid at 1:1,,
O=C1O[C@H]([C@@H](O)CO)C(O)=C1O [L-Ascorbic Acid],Solid at 1:1,,
CC(C)Cc1ccc(C(C)C(=O)O)cc1 (stereo not shown) [2-(4-Isobutylphenyl)propionic Acid],Solid at 1:1,,
C/C(=C\C(=O)O)C(=O)O [Mesaconic Acid],Solid,,"Physical Form (Ratios Listed as Cation:Anion) [1, 5]: Liquid"
CC(C)C1=CC2=CC[C@@H]3[C@](C)(CCC[C@@]3(C)C(=O)O)[C@H]2CC1 [Abietic Acid],Solid at 1:1,,
O=C(O)C1CC2C=CC1C2 (stereo not shown) [5-Norbornene-2-carboxylic Acid],Solid at 1:1,,
CCCCC/C=C\C/C=C\C/C=C\C/C=C\CCCC(=O)O [Arachidonic Acid],Solid at 1:1,,
"CC(C)=CCCC(C)CC(=O)O (stereo not shown) [citronellic acid alone, citronellic acid, reference compound]",,,"blood glucose levels, % of starting levels [2]: about 30%"
O=C(O)CC(=O)O [Malonic Acid],Liquid at 1:1,,
O=C(O)CCC(=O)C(=O)O [α-Ketoglutaric Acid],,,"Physical Form (Ratios Listed as Cation:Anion) [1, 5]: Liquid at 2:1"
"CC(C)CCCC(C)CC(=O)O (stereo not shown) [3,7-Dimethyloctanoic Acid]","Solid at 1:1, 1:2","Solid at 1:1, 1:2",
O=C(O)CCCC(=O)O [Glutaric Acid],"Liquid at 2:1, 1:1",,"Physical Form (Ratios Listed as Cation:Anion) [1, 5]: Liquid at 2:1, 1:1"
O=C(O)CCCC[C@@H]1CCSS1 [(R)-α-Lipoic Acid],"Solid at 2:1, 1:1, 1:2,","Solid at 2:1, 1:1, 1:2,","Physical Form (Ratios Listed as Cation:Anion) [1, 5]: Solid at 2:1, 1:1, 1:2,"
CC(=O)O [Acetic Acid],"Liquid at 2:1, 1:1, 1:2","Liquid at 2:1, 1:1, 1:2","Physical Form (Ratios Listed as Cation:Anion) [1, 5]: Liquid at 2:1, 1:1, 1:2"
O=C(O)/C=C\C(=O)O [Maleic Acid],"Liquid at 2:1, 1:1",,"Physical Form (Ratios Listed as Cation:Anion) [1, 5]: Liquid at 2:1, 1:1"
O=C(O)C(O)c1ccccc1 (stereo not shown) [Mandelic Acid],"Liquid at 1:1, 1:2","Liquid at 1:1, 1:2",
O=C(O)CNC(=O)c1ccccc1O [2-Hydroxyhippuric Acid],Solid at 1:1,,
O=C(O)CO [Glycolic Acid],"Liquid at 2:1, 1:1",,"Physical Form (Ratios Listed as Cation:Anion) [1, 5]: Liquid at 2:1, 1:1"
CC(C)CCC(=O)O [4-Methylvaleric Acid],,Liquid at 1:2,

Molecule,"Physical Form (Ratios Listed as Cation:Anion) [1, 3]","Physical Form (Ratios Listed as Cation:Anion) [1, 4]",other results
N[C@@H](CCC(=O)N[C@@H](CS)C(=O)NCC(=O)O)C(=O)O [L-Glutathione reduced],,,"Physical Form (Ratios Listed as Cation:Anion) [1, 5]: Solid at 2:1"
CCCCCCCCCCCC(=O)O [Lauric Acid],"Solid at 1:1, 1:2","Solid at 1:1, 1:2",
CCCCC(C)CCC(=O)O (stereo not shown) [4-Methyloctanoic Acid],Liquid,Solid,
CC(O)C(=O)O (stereo not shown) [Lactic Acid],"Liquid at 1:1, 1:2","Liquid at 1:1, 1:2",
O=C(O)CC(O)(CC(=O)O)C(=O)O [Citric Acid],Solid,,"Physical Form (Ratios Listed as Cation:Anion) [1, 5]: Liquid; Physical Form (Ratios Listed as Cation:Anion) ([1]; cation:anion 3:1, room temperature): Liquid; Physical Form (Ratios Listed as Cation:Anion) ([1]; cation:anion 4:1, room temperature): Liquid"
O=C(O)[C@H](O)[C@@H](O)[C@@H](O)[C@H](O)CO [D-(+)-Galactonic Acid],Solid at 1:1,,
CCC(C)CCC(=O)O (stereo not shown) [4-Methylhexanoic Acid],"Liquid at 1:1, 1:2","Liquid at 1:1, 1:2",
O=c1oc2c(O)c(O)cc3c(=O)oc4c(O)c(O)cc1c4c23 [Ellagic Acid],Solid at 1:1,,
CCCCCCCCCC(=O)O [Decanoic Acid],Solid,Solid,"Physical Form (Ratios Listed as Cation:Anion) ([1]; cation:anion 1:1, room temperature, listed as decanoic acid): solid; Physical Form (Ratios Listed as Cation:Anion) ([1]; cation:anion 1:2, room temperature, listed as decanoic acid): solid; Physical Form (Ratios Listed as Cation:Anion) [1, 5]: Liquid; Physical Form (Ratios Listed as Cation:Anion) ([1]; cation:anion 2:1, room temperature, listed as decanoic acid): liquid; appearance and physical form ([1]; room temperature, ratio as in label): waxy solid"
O=C(O)/C=C/c1ccc(O)c(O)c1 [Caffeic Acid],Solid at 1:1,,
CCCCCC(=O)O [Hexanoic Acid],"Liquid at 1:1, 1:2","Liquid at 1:1, 1:2",
CCCCCCCCC(CCCCCC)C(=O)O (stereo not shown) [2-Hexyldecanoic Acid],Liquid at 1:1,,
CC(C)=CCC/C(C)=C/C(=O)O [Geranic Acid],"Liquid at 1:1, 1:2","Liquid at 1:1, 1:2",
Dihydrobenzoic Acid,Solid at 1:1,,
O=C(O)CC(O)C(=O)O (stereo not shown) [Malic Acid],"Liquid at 2:1, 1:1",,"Physical Form (Ratios Listed as Cation:Anion) [1, 5]: Liquid at 2:1, 1:1"
O=C(O)/C=C/C(=O)O [Fumaric Acid],Solid,,"Physical Form (Ratios Listed as Cation:Anion) [1, 5]: Liquid"
CC(=O)CCC(=O)O [Levulinic Acid],"Liquid at 1:1, 1:2","Liquid at 1:1, 1:2",
"CC(CCC(C(=O)O)C(C)CC(C)(C)C)CC(C)(C)C (stereo not shown) [2-(4,4-Dimethyl-2-pentanyl)-5,7,7-trimethyloctanoic Acid]",Solid at 1:1,,
C/C=C/C(=O)O [Crotonic Acid],"Liquid at 1:1, 1:2","Liquid at 1:1, 1:2",

# Second part, led by results:
"Physical Form (Ratios Listed as Cation:Anion) [1, 3]","Physical Form (Ratios Listed as Cation:Anion) [1, 4]",Molecule,other results
"Liquid at 1:1, 1:2","Liquid at 1:1, 1:2",CCCCCC[C@@H](O)C/C=C\CCCCCCCC(=O)O [Ricinoleic Acid],
Solid,Liquid,Cc1ccc(S(=O)(=O)O)cc1 [p-Toluenesulfonic Acid],
"Liquid at 1:1, 1:2","Liquid at 1:1, 1:2",CCC/C=C/C(=O)O [Trans-2-Hexenoic Acid],
"Liquid at 1:1, 1:2","Liquid at 1:1, 1:2",CCCC/C=C/CC(=O)O [Trans-3-Octenoic Acid],
Solid at 1:1,,COc1cc(/C=C/C(=O)O)ccc1O [Trans-Ferulic Acid],
"Liquid at 2:1, 1:1, 1:2","Liquid at 2:1, 1:1, 1:2",O=C(O)CCC(=O)O [Succinic Acid],"Physical Form (Ratios Listed as Cation:Anion) [1, 5]: Liquid at 2:1, 1:1, 1:2"
"Liquid at 2:1, 1:1",,CCC(=O)O [Propionic Acid],"Physical Form (Ratios Listed as Cation:Anion) [1, 5]: Liquid at 2:1, 1:1"
"Liquid at 1:1, 1:2","Liquid at 1:1, 1:2",CC(=O)C(=O)O [Pyruvic Acid],
"Liquid at 1:1, 1:2","Liquid at 1:1, 1:2",C/C=C/C=C/C(=O)O [Sorbic Acid],
Solid at 1:1,,COc1cc(C(=O)O)ccc1O [Vanillic Acid],
Solid at 1:1,,C=C(C)[C@@H]1CC=C(C(=O)O)CC1 [Perillic Acid],
"Solid at 1:1, 1:2","Solid at 1:1, 1:2",CCCCCCCC/C=C\CCCCCCCC(=O)O [Oleic Acid],
Solid,Liquid,O=C1CC[C@@H](C(=O)O)N1 [Pyroglutamic Acid],
Solid,Liquid,O=P(O)(O)O [Phosphoric Acid],"Physical Form (Ratios Listed as Cation:Anion) [1, 5]: Liquid"
"Liquid at 1:1, 1:2","Liquid at 1:1, 1:2",CCCCC/C=C/C(=O)O [Trans-2-Octenoic Acid],
"Liquid at 2:1, 1:1",,O=C(O)CCCCCC(=O)O [Pimelic Acid],"Physical Form (Ratios Listed as Cation:Anion) [1, 5]: Liquid at 2:1, 1:1"
"Liquid at 1:1, 1:2","Liquid at 1:1, 1:2",C=CCCCCCC(=O)O [Trans-7-Octenoic Acid],
"Solid at 1:1, 1:2","Solid at 1:1, 1:2",CCCCCCC/C=C/C(=O)O [Trans-2-Decenoic Acid],
"Solid at 1:1, 1:2","Solid at 1:1, 1:2",CCCCCCCCC(=O)O [Nonanoic Acid],
Solid at 1:1,,COc1cc(C(=O)O)cc(OC)c1O [Syringic Acid],
Solid at 1:1,,CCCCCCCCCCC(=O)O [Undecanoic Acid],
